In PubChem BioAssay (NCI):
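These data come from cells grown in 96-well plates and exposed to compound for 48 hours at five concentrations. At the GI50, growth is halved. TGI: concentration producing complete growth inhibition.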

Tests used:
Experiment in all cases: inhibition of tumour cell growth, NCI panel, 48 h
CCRF-CEM leukemia = tested on: CCRF-CEM leukemia
OVCAR-3 ovarian = tested on: OVCAR-3 ovarian
UACC-257 melanoma = tested on: UACC-257 melanoma
SNB-19 CNS = tested on: SNB-19 CNS
MALME-3M melanoma = tested on: MALME-3M melanoma
KM12 colon = tested on: KM12 colon
HL-60(TB) leukemia = tested on: HL-60(TB) leukemia
T-47D breast = tested on: T-47D breast
MOLT-4 leukemia = tested on: MOLT-4 leukemia
K-562 leukemia = tested on: K-562 leukemia
MDA-MB-435 = tested on: MDA-MB-435
HT29 colon = tested on: HT29 colon
NCI-H226 lung = tested on: NCI-H226 lung
HS 578T breast = tested on: HS 578T breast
OVCAR-8 ovarian = tested on: OVCAR-8 ovarian
NCI/ADR-RES ovarian = tested on: NCI/ADR-RES ovarian
HOP-62 NSCLC = tested on: HOP-62 NSCLC
A549 NSCLC = tested on: A549 NSCLC
MCF7 breast = tested on: MCF7 breast
SNB-75 CNS = tested on: SNB-75 CNS
SK-MEL-5 melanoma = tested on: SK-MEL-5 melanoma
NCI-H522 lung = tested on: NCI-H522 lung
ACHN renal = tested on: ACHN renal
A498 renal = tested on: A498 renal
RXF 393 renal = tested on: RXF 393 renal
U251 CNS = tested on: U251 CNS
COLO 205 colon = tested on: COLO 205 colon
SF-539 CNS = tested on: SF-539 CNS
SK-MEL-2 melanoma = tested on: SK-MEL-2 melanoma
UACC-62 melanoma = tested on: UACC-62 melanoma
RPMI-8226 leukemia = tested on: RPMI-8226 leukemia
OVCAR-5 ovarian = tested on: OVCAR-5 ovarian
TK-10 renal = tested on: TK-10 renal
HCT-116 colon = tested on: HCT-116 colon
SK-OV-3 ovarian = tested on: SK-OV-3 ovarian
HOP-92 NSCLC = tested on: HOP-92 NSCLC
OVCAR-4 ovarian = tested on: OVCAR-4 ovarian
786-0 renal = tested on: 786-0 renal
UO-31 renal = tested on: UO-31 renal
SK-MEL-28 melanoma = tested on: SK-MEL-28 melanoma
NCI-H460 lung = tested on: NCI-H460 lung
EKVX NSCLC = tested on: EKVX NSCLC
DU-145 prostate = tested on: DU-145 prostate
SF-268 CNS = tested on: SF-268 CNS
SR leukemia = tested on: SR leukemia
NCI-H23 lung = tested on: NCI-H23 lung
HCC-2998 colon = tested on: HCC-2998 colon
SF-295 CNS = tested on: SF-295 CNS
PC-3 prostate = tested on: PC-3 prostate
SW-620 colon = tested on: SW-620 colon
HCT-15 colon = tested on: HCT-15 colon
BT-549 breast = tested on: BT-549 breast
MDA-MB-231 breast = tested on: MDA-MB-231 breast
M14 melanoma = tested on: M14 melanoma
SN12C renal = tested on: SN12C renal
CAKI-1 renal = tested on: CAKI-1 renal

With `NC(=S)c1c(N)n(C2OC(CO)C(O)C2O)c2ncnc(N)c12` (configuration not stated) the GI50 (CCRF-CEM leukemia) was 0.241 µM, the TGI (CCRF-CEM leukemia) was 0.773 µM and the GI50 (OVCAR-3 ovarian) was 0.287 µM. It also gave a TGI (OVCAR-3 ovarian) of 1.2 µM, a GI50 (UACC-257 melanoma) of 0.729 µM and a TGI (UACC-257 melanoma) of 4.8 µM. It also gave a GI50 (SNB-19 CNS) of 0.962 µM, a TGI (SNB-19 CNS) of over 100 µM and a GI50 (MALME-3M melanoma) of 0.426 µM. The TGI (MALME-3M melanoma) was 2.23 µM, the GI50 (KM12 colon) was 0.258 µM and the TGI (KM12 colon) was 9.61 µM. For the same molecule, the GI50 (HL-60(TB) leukemia) was 0.135 µM, the TGI (HL-60(TB) leukemia) was 0.407 µM and the GI50 (T-47D breast) was 0.238 µM. The TGI (T-47D breast) was 1.17 µM, the GI50 (MOLT-4 leukemia) was 0.245 µM and the TGI (MOLT-4 leukemia) was 0.927 µM. For the same molecule, the GI50 (K-562 leukemia) was 0.0622 µM, the TGI (K-562 leukemia) was 0.494 µM and the GI50 (MDA-MB-435) was 0.259 µM. For the same molecule, the TGI (MDA-MB-435) was 1.01 µM, the GI50 (HT29 colon) was 0.147 µM and the TGI (HT29 colon) was over 40.9 µM. The GI50 (NCI-H226 lung) was 0.695 µM, the TGI (NCI-H226 lung) was 16 µM and the GI50 (HS 578T breast) was 0.223 µM. The TGI (HS 578T breast) was 0.648 µM, the GI50 (OVCAR-8 ovarian) was 0.232 µM and the TGI (OVCAR-8 ovarian) was 0.863 µM. The GI50 (NCI/ADR-RES ovarian) was 0.276 µM, the TGI (NCI/ADR-RES ovarian) was 1.27 µM and the GI50 (HOP-62 NSCLC) was 0.21 µM. The TGI (HOP-62 NSCLC) was 0.904 µM, the GI50 (A549 NSCLC) was 0.301 µM and the TGI (A549 NSCLC) was over 100 µM. The GI50 (MCF7 breast) was 0.0579 µM, the GI50 (SNB-75 CNS) was 0.885 µM and the TGI (SNB-75 CNS) was 4.17 µM. The GI50 (SK-MEL-5 melanoma) was 0.162 µM, the TGI (SK-MEL-5 melanoma) was 2.05 µM and the GI50 (NCI-H522 lung) was 0.188 µM. For the same molecule, the TGI (NCI-H522 lung) was 0.479 µM, the GI50 (ACHN renal) was 0.268 µM and the TGI (ACHN renal) was over 100 µM. It also gave a GI50 (A498 renal) of 0.211 µM, a TGI (A498 renal) of 0.522 µM and a GI50 (RXF 393 renal) of 0.237 µM. It also gave a TGI (RXF 393 renal) of 0.557 µM, a GI50 (U251 CNS) of 0.496 µM and a TGI (U251 CNS) of over 100 µM. The GI50 (COLO 205 colon) was 0.186 µM, the TGI (COLO 205 colon) was 0.567 µM and the GI50 (SF-539 CNS) was 0.241 µM. For the same molecule, the TGI (SF-539 CNS) was 1.06 µM, the GI50 (SK-MEL-2 melanoma) was 0.297 µM and the TGI (SK-MEL-2 melanoma) was 1.07 µM. It also gave a GI50 (UACC-62 melanoma) of 0.263 µM, a TGI (UACC-62 melanoma) of 1.37 µM and a GI50 (RPMI-8226 leukemia) of 0.511 µM. The TGI (RPMI-8226 leukemia) was 3.05 µM, the GI50 (OVCAR-5 ovarian) was 0.342 µM and the TGI (OVCAR-5 ovarian) was 2.92 µM. The GI50 (TK-10 renal) was 0.297 µM, the TGI (TK-10 renal) was 3.56 µM and the GI50 (HCT-116 colon) was 0.211 µM. It also gave a GI50 (SK-OV-3 ovarian) of 0.388 µM, a TGI (SK-OV-3 ovarian) of over 100 µM and a GI50 (HOP-92 NSCLC) of 0.302 µM. For the same molecule, the TGI (HOP-92 NSCLC) was 3.43 µM, the GI50 (OVCAR-4 ovarian) was 0.264 µM and the TGI (OVCAR-4 ovarian) was over 100 µM. The GI50 (786-0 renal) was 0.304 µM, the GI50 (UO-31 renal) was 0.27 µM and the TGI (UO-31 renal) was 2.33 µM. The GI50 (SK-MEL-28 melanoma) was 0.295 µM, the TGI (SK-MEL-28 melanoma) was 1.81 µM and the GI50 (NCI-H460 lung) was 0.2 µM. It also gave a GI50 (EKVX NSCLC) of 0.345 µM, a TGI (EKVX NSCLC) of 11 µM and a GI50 (DU-145 prostate) of 0.278 µM. It also gave a TGI (DU-145 prostate) of over 100 µM, a GI50 (SF-268 CNS) of 0.425 µM and a TGI (SF-268 CNS) of 4.52 µM. It also gave a GI50 (SR leukemia) of 0.0636 µM, a TGI (SR leukemia) of 0.403 µM and a GI50 (NCI-H23 lung) of 0.258 µM. For the same molecule, the TGI (NCI-H23 lung) was 1.14 µM, the GI50 (HCC-2998 colon) was 0.204 µM and the TGI (HCC-2998 colon) was 0.801 µM. It also gave a GI50 (SF-295 CNS) of 0.659 µM, a TGI (SF-295 CNS) of over 27.1 µM and a GI50 (PC-3 prostate) of 0.221 µM. For the same molecule, the GI50 (SW-620 colon) was 0.177 µM, the TGI (SW-620 colon) was 0.836 µM and the GI50 (HCT-15 colon) was 0.0573 µM. The TGI (HCT-15 colon) was 0.435 µM, the GI50 (BT-549 breast) was 0.17 µM and the TGI (BT-549 breast) was 0.475 µM. The GI50 (MDA-MB-231 breast) was 0.333 µM, the TGI (MDA-MB-231 breast) was over 100 µM and the GI50 (M14 melanoma) was 0.178 µM. The TGI (M14 melanoma) was 0.648 µM, the GI50 (SN12C renal) was 0.208 µM and the TGI (SN12C renal) was over 100 µM. The GI50 (CAKI-1 renal) was 0.515 µM and the TGI (CAKI-1 renal) was 5.42 µM.
